Source: patent US20250241908A1 (SHANGHAI YAO YUAN BIOTECHNOLOGY CO., LTD., priority 2022, published 2025)
Where two headings read alike, the source gives them in different places.

What was measured:
[1] = system: ALPK1-dependent gene expression in PBMC; test: Inhibition of ALPK1 in PBMC cells; type: in vivo, Sprague-Dawley (SD) rats; details: SD rats, 10 mpk oral, ALPK1 agonist ip 2 h later, blood 3 h after agonist; compared with vehicle group
Method: We examined whether ALPK1 inhibitors can suppress ALPK1-dependent activation of a set of such genes in rats. […] PBMCs were collected and gene expression analyzed, as described in more detail below.
After 3 hours administration of the ALPK1 agonist, the blood was collected from heart, and PBMC were extracted from each group.

[2] = system: ALPK1-TIFA-IL1β pathway in THP-1-derived macrophage cells; test: PMA-differentiated THP-1 cell based assay; details: for IC50: Homo sapiens, PMA-differentiated THP-1 cells stimulated with ALPK1 agonist
Method: We evaluated the ability of ALPK1 inhibitors to suppress IL1β, IL8 and TNF-α levels following ALPK1 activation in THP-1-derived macrophage cells. […] Inhibitory activity is measured as suppression of IL1β.
THP-1 cells were cultured in RPMI 1640 containing 10% heat inactivated FBS, penicillin (100 units/ml) and streptomycin (100 μg/ml), and maintained in a humidified incubator with 95% atmospheric air and 5% CO2. Prior to the experiment, THP-1 cells were seeded into 24-well flat-bottom plate at a cell density of 40,0000 cells/well. Phorbol myristate acetate (PMA; 50 ng/ml) was used to treat THP-1 cells for 48 h, and then THP-1-derived macrophages were obtained. […] Total RNA was extracted using the TRIzol method and reverse-transcribed. The mRNA expression levels IL1β, IL8 and TNF-α were detected by SYBR green gene expression assays. Expression levels of mRNA were normalized to GAPDH. Relative expression was calculated by comparing to vehicle control and the values were plotted as fold induction. All activity results were expressed as the mean of triplicate determinations. IC50 was determined from dose response curve using Prism Software, version 6.00 from GraphPad Software.

ALPK1 = ALPK1 (Homo sapiens (Human), UniProt Q96QP1); test: ALPK1 in vitro kinase assay (HTRF, TIFA phosphorylation); type: biochemical; details: HTRF of HA-tagged TIFA; ALPK1 2 nM; ADP-Heptose as activator
Method: ALPK1 kinase activity was measured in an in vitro assay using ADP-Heptose as the ALPK1 ligand and activator of its kinase activity and TIFA protein as the ALPK1 phosphorylation substrate. Since phosphorylated TIFA proteins oligomerize, Homogeneous Time-Resolved Fluorescence (HTRF) was used to measure protein: protein interaction between HA-tagged TIFA proteins as an indicator of TIFA phosphorylation.
In brief, dose-response studies were performed in 384-well assay plates. Each well contained 0.1 mg TIFA, ALPK1 (2 nM final concentration in reaction mixture) and kinase buffer (100 mM of HEPES pH 7.4, 4 mM DTT, 40 mM MgCl2, 20 mM of β-Glycerol phosphate disodium salt, 0.4 mM of Na3 VO4, 0.16 mg/mL). Titrations of the test compounds were prepared in dimethylsulphoxide (DMSO). The reaction was initiated by addition of ATP and ADP-Heptose.
For HTRF, samples were incubated with a Tb cryptate-labeled anti-HA antibody for capturing HA-tagged proteins according to the manufacturer's instructions (PerkinElmer™, CisBio™) and the fluorescence signal was quantified (Tecan Infinite F NANO+). HTRF signals were calculated as the HTRF ratio (ratio of fluorescence measured at 665 nm and 620 nm)×104 (thereby using the signal at 620 nm as an internal standard).
IC50 values were determined using 3- or 4-parameter logistic equation using GraphPad Prism version 6.00.

[3] = system: carotid artery of Guinea Pig after PCL surgery; test: Guinea pig, high fat diet, Partial Carotid Ligation model; type: in vivo; details: 6 weeks high fat diet
[4] = system: innate immunity gene expression following ALPK1 activation; test: Inhibition of ALPK1 in coronary artery, aorta, and heart muscle; type: in vivo, Sprague-Dawley (SD) rats; details: SD rats, 40 mpk oral, ALPK1 agonist ip 2 h later, tissue 3 h after agonist; compared with vehicle group
[5] = system: OSS-induced inflammatory signaling in ECs (HUVECs); test: Oscillatory shear stress (OSS) in HUVECs; type: cell-based, human; details: oscillatory flow 0.5±4 dyn/cm2 for 6 hours, 300 nM
Method: For flow experiments, confluent monolayers of HUVECs were seeded on glass slides, Static condition (ST) without any treatment served as control and a parallel plate flow system was used to impose oscillatory flow (0.5±4 dyn/cm2) for 6 hours.

[6] = system: ALPK1-TIFA pathway target gene mRNA in HASMC; test: Primary Human Aorta Smooth Muscle Cell-based assay; details: for IC50: Homo sapiens, HASMC stimulated with ALPK1 agonist
Method: Primary Human Aorta smooth muscle Cells (HASMC) grow in Smooth muscle Cell Basal Media supplemented with Smooth Muscle Cell Growth Kit components (PriMed-iCell-002, iCell), provide an ideal cell system to propagate HASMC.
Briefly, primary HASMC were seeded at a density of 25000 cells per well to a collagen coated 24-well culture plate. […] Total RNA was extracted using the RNeasy mini kit method and reverse-transcribed. The mRNA expression levels of target genes were detected by SYBR green gene expression assays. Expression levels of mRNA were normalized to HPRT. Relative expression was calculated by comparing to vehicle control and the values were plotted as fold induction. All activity results were expressed as the mean of triplicate determinations. IC50 was determined from dose response curve using Prism Software, version 6.00 from GraphPad Software.

[7] = system: PCL induced atherosclerosis in ApoE knockout mice; test: ApoE mice, high fat diet, Partial Carotid Ligation atherosclerosis model; type: in vivo, mouse; details: high fat diet, 1, 3, 9 mg/kg oral once daily for 2 weeks from PCL surgery
From the text: To determine the efficacy of ALPK1 inhibitor in atherosclerosis, we treat the ApoE mice with High Fat Diet (Research Diet, D12109C), and perform Partial Carotid Ligation (PCL) surgery on left Carotid artery as described previously (Zhang, Chenghu et al. “Coupling of Integrin a5 to Annexin A2 by Flow Drives Endothelial Activation.” Circulation research vol. 127, 8 (2020): 1074-1090) to accelerate the development of atherosclerosis. […] Two weeks later, the carotid artery of ligated side was collected, the contralateral carotid from vehicle group were served as control. The carotid was fixed and sectioned. The wall thicknesses were quantified by software.

Sequence of ALPK1 (Q96QP1 whole entry): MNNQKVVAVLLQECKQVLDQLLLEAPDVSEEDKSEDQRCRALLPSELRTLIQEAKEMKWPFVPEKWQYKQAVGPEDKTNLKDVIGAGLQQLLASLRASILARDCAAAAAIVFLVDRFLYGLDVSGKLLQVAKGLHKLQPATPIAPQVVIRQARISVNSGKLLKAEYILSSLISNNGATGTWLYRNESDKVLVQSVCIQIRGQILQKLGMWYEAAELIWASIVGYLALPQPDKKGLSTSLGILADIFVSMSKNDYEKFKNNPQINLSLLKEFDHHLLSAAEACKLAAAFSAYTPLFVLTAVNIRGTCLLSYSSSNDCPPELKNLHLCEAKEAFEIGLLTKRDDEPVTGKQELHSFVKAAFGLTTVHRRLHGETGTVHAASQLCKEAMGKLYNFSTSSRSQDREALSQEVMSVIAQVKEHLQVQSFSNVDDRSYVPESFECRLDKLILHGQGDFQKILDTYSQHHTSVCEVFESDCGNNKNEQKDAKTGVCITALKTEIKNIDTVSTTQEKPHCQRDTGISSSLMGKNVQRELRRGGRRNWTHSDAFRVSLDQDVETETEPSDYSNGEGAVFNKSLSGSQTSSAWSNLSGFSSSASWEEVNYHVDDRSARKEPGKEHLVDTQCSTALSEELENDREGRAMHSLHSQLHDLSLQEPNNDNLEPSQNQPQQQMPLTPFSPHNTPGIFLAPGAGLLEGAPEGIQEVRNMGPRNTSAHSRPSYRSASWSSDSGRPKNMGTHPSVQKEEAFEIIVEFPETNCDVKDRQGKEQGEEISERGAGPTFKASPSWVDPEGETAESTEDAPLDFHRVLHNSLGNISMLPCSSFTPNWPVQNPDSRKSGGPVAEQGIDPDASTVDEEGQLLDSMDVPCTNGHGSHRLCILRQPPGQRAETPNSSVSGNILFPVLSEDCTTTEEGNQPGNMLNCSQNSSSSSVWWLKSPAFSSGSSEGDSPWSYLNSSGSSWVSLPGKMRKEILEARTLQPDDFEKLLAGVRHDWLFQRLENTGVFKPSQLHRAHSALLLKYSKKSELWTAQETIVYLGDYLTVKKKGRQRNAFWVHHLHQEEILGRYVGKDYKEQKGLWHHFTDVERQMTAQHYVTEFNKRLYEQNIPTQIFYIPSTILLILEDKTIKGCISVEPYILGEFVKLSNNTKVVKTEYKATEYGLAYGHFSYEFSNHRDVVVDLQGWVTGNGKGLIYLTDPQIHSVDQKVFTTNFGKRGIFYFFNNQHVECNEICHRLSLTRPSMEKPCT

Question: How did the “PBMC mRNA expression for CCL-2, CCL-7, CXCL-1, CXCL-10, CXCL-11 and IL-1β” value [1] turn out when `C#C[C@@](C)(c1ccc(Cl)cc1)c1csc(NC(=O)NCCO)n1` [Compound A176, (S)-1-(4-(2-(4-chlorophenyl)but-3-yn-2-yl)thiazol-2-yl)-3-(2-hydroxyethyl)urea] was run?
Answer: Its value is “significant decreases”.

Question: And the “inhibition of IL1β induced by ALPK1 activation” value ([2]; THP-1-derived macrophages)?
Answer: The value was “potent inhibition”.

Question: Which IC50 (ALPK1) does the source give for `COc1ccc(C(C)(C)c2csc(NC(=O)c3ccc(N4CCNCC4C)cc3)n2)cc1` (centres unmarked) [Compound B014] here?
Answer: The IC50 was 300 nM.

Question: For `COc1ccc(C(C)(C)c2csc(NC(=O)c3ccc(N4CCNCC4)cn3)n2)cc1` [Compound B044, N-(4-(2-(4-methoxyphenyl)propan-2-yl)thiazol-2-yl)-5-(piperazin-1-yl)picolinamide], which IC50 (ALPK1) is on record?
Answer: The IC50 was 213 nM.

Question: How did the “PBMC mRNA expression for CCL-7, CXCL-1, CXCL-10, CXCL-11, IL-1β, TNF-α and IL-6” value [1] turn out when `C#C[C@@](C)(c1ccc(Cl)cc1)c1csc(NC(=O)c2c(F)cc(N3CCNCC3)cc2F)n1` [Compound C008, (S)-N-(4-(2-(4-chlorophenyl)but-3-yn-2-yl)thiazol-2-yl)-2,6-difluoro-4-(piperazin-1-yl)benzamide] was run?
Answer: Its value is “significant decreases”.

Question: What about the “fibrosis area percentage of the carotid artery (Masson staining)” value [3] of the same compound?
Answer: Its value is “decreased”.

Question: What about the “liver CYP7A1 expression” value [3] of the same compound?
Answer: The value was “elevated CYP7A1 expression dose dependently”.

Question: What about the “total plasma cholesterol level” value [3] of the same compound?
Answer: Its value is “dose dependently decreased”.

Question: And the “wall thickness of the carotid artery (Masson staining)” value [3]?
Answer: Its value is “decreased”.

Question: And the “mRNA expression of aorta IL-6, CXCL-1, CXCL-10, CCL-2” value [4]?
Answer: The value was “significantly decreased”.

Question: What about the “mRNA expression of cardiac muscle TNF-α, IL-1b, IL-6, CXCL-1, CXCL-10, CXCL-11, CCL-2 and CCL-5” value [4] of the same compound?
Answer: Its value is “significantly decreased”.

Question: And the “mRNA expression of coronary artery TNF-α, CXCL-1, CCL-2 and CCL-7” value [4]?
Answer: The value was “significantly decreased”.

Question: What about the IC50 ([2]; read-out: IL-8 mRNA IC50) of the same compound?
Answer: Its IC50 is 6 nM.

Question: What about the IC50 ([2]; read-out: TNF-α mRNA IC50) of the same compound?
Answer: The IC50 was 9 nM.

Question: What about the “inhibition of IL1β induced by ALPK1 activation” value ([2]; THP-1-derived macrophages) of the same compound?
Answer: Its value is “potent inhibition”.

Question: What about the “inhibition of IL8 and TNF-α mRNA induced by ALPK1 activation” value ([2]; THP-1-derived macrophages) of the same compound?
Answer: The value was “potent inhibition”.

Question: And the “OSS-induced inflammatory signaling in ECs (E-selectin and inflammatory cytokine mRNA)” value [5]?
Answer: Its value is “reduced”.

Question: What about the “IL8, TIFA, ICAM-1, VCAM-1 mRNA levels induced by ALPK1 activation” value ([6]; HASMC) of the same compound?
Answer: The value was “dose dependently inhibited”.

Question: What about the IC50 ([6]; read-out: IC50 ICAM-1 mRNA) of the same compound?
Answer: Its IC50 is 47 nM.

Question: And the IC50 ([6]; read-out: IC50 IL8 mRNA)?
Answer: Its IC50 is 110 nM.

Question: What about the IC50 ([6]; read-out: IC50 TIFA mRNA) of the same compound?
Answer: Its IC50 is 115 nM.

Question: What about the IC50 ([6]; read-out: IC50 VCAM-1 mRNA) of the same compound?
Answer: The IC50 was 38 nM.

Question: What about the “PCL induced atherosclerosis (carotid artery wall thickness)” value [7] of the same compound?
Answer: Its value is “dose dependently inhibited”.
